Source: US20200261479A1, “PROCESSES FOR THE PREPARATION OF AMORPHOUS TENOFOVIR ALAFENAMIDE HEMIFUMARATE AND A PREMIX THEREOF” (MYLAN LABORATORIES LIMITED, priority 2015, published 2020)

Legend:
[1] = Storage stability of amorphous tenofovir alafenamide hemifumarate and premixes, PXRD pattern; format: physicochemical
Method: The amorphous form of tenofovir alafenamide hemifumarate of the present disclosure may be characterized by a PXRD pattern. Thus, the PXRD patterns of the amorphous form of tenofovir alafenamide hemifumarate were obtained on BRUKER D-8 Discover powder diffractometer equipped with goniometer of θ/2θ configuration and Lynx Eye detector. The Cu-anode X-ray tube was operated at 40 kV and 30 mA. The experiments were conducted over the 2θ range of 2.0°-50.0°, 0.030° step size and 0.4 seconds step time.
Thus, the PXRD patterns of several embodiments of the present disclosure were obtained on BRUKER D-8 Discover powder diffractometer equipped with goniometer of θ/2θ configuration and Lynx Eye detector. The Cu-anode X-ray tube was operated at 40 kV and 30 mA. The experiments were conducted over the 2θ range of 2.0°-50.0°, 0.030° step size and 0.4 seconds step time.

[2] = Storage stability of amorphous tenofovir alafenamide hemifumarate and premixes, HPLC purity
Method: As used herein, a compound or pharmaceutical composition is considered “stable” where the HPLC purity of the compound or premix changes by less than about 1% when stored at 5±3° C. and/or at 25° C./60% relative humidity (RH). In certain embodiments, the “stable” compound or premix is stored at 5±3° C. In other embodiments, the “stable” compound or premix is stored at 25° C./60% relative humidity (RH).
Further, the stability of certain embodiments of the premix of amorphous tenofovir alafenamide hemifumarate can be measured by PXRD and HPLC. Thus, HPLC analyses were also performed. HPLC separations were performed on a Waters Alliance 2695 HPLC system with UV detector. Data was collected and analyzed with Empower chromatography software or equivalent. The separation was performed on an X-Bridge Phenyl, 250×4.6 mm, 5 μm column with a mobile phase flow rate of 0.7 mL/min and injection volume of 10 μL. Separations were performed by gradient elution with mobile 1.75 mM tetrabutylammonium bisulfate (pH 2.0) in 5% THF (mobile phase A) and 70:30 acetonitrile:methanol (mobile phase B) as specified in the table below.
The column oven temp was 20° C. and UV detector was set to 260 nm. The purity of the premix was also measured by HPLC using similar conditions.

## CC(C)OC(=O)[C@H](C)N[P@](=O)(CO[C@H](C)Cn1cnc2c(N)ncnc21)Oc1ccccc1 [tenofovir alafenamide hemifumarate]
[1]; at 5 ± 3° C., 3 months
  PXRD: Stable
[1]; at 5 ± 3° C., 6 months
  PXRD: Stable
[1]; at 5 ± 3° C., Initial
  PXRD: Amorphous
[1]; at 25° C./60% RH, 3 months
  PXRD: Stable
[1]; at 25° C./60% RH, 6 months
  PXRD: Stable
[1]; at 25° C./60% RH, Initial
  PXRD: Amorphous
[2]; at 5 ± 3° C., 3 months
  HPLC purity (%): 99.45%
[2]; at 5 ± 3° C., 6 months
  HPLC purity (%): 99.54%
[2]; at 5 ± 3° C., Initial
  HPLC purity (%): 99.53%
[2]; at 25° C./60% RH, 3 months
  HPLC purity (%): 99.36%
[2]; at 25° C./60% RH, 6 months
  HPLC purity (%): 99.48%
[2]; at 25° C./60% RH, Initial
  HPLC purity (%): 99.53%
[2]; stored at 5±3° C. and at 25° C./60% RH, 3 and 6 months, HPLC and PXRD
  degradation or change in PXRD pattern on storage: no significant degradation or change in PXRD pattern
